Entries after “also recorded” stand apart in the source; their conditions may differ. Non-standard residues stand in square brackets, D forms with d. No end group written: not given here. pS = N[C@@H](COP(=O)(O)O)C(=O)O
Tests used:
[1] = system: rat aorta; assay: Endothelial-dependent relaxation of rat aorta after cytokine (IL1β / cytomix) injury; type: cell-based; conditions: 2 hrs; for endothelial function (percent relaxation to carbachol) after IL1β injury: IL1β 50 ng/ml, peptide 100 μM; for endothelial function (percent relaxation to carbachol) after cytokine injury: IL1β alone 50 ng/ml or cytomix (IL1β, TNFa, IFNg), peptide 500 μM
Procedure: Freshly isolated rat aorta (RA) was cut into rings and suspended in the muscle bath. Tissues were then treated with either IL1β alone (50 ng/ml) or cytomix (IL1β 50 ng/ml, TNFa, 10 ng/ml, IFNg 50 ng/ml) in the absence or presence of NiPp (500 μM) for 2 hrs, contracted with PE, and then treated with escalating doses of carbachol (CCH; 10^−8 to 10^−5M). The percent relaxation was determined as a change to the maximal PE-induced contraction. n=5-7 rats. *p<0.05 in two-way ANOVA with Tukey post-test. NiPp restores cytokines-induced endothelial dysfunction in RA.
Freshly isolated rat aorta (RA) was cut into rings and suspended in the muscle bath. Tissues were then treated with the cytokine IL1β (50 ng/ml) in the absence or presence of NiPp, NiPp3, or scr3NiPp (100 μM) for 2 hrs, contracted with PE, and then treated with escalating doses of carbachol (CCH; 10^−8 to 10^−5 M). The percent relaxation was determined as a change to the maximal PE-induced contraction. n=5-7 rats. *p<0.05 in two-way ANOVA with Tukey post-tests. There were significant differences between IL1β-treated vs ctrl or NiPp-treated RA.
Freshly isolated rat aorta (RA) was cut into rings and suspended in the muscle bath. Tissues were then treated with either IL1β alone (50 ng/ml) or cytomix (IL1β 50 ng/ml, TNFa, 10 ng/ml, IFNg 50 ng/ml) in the absence or presence of NiPp (500 μM) for 2 hrs, contracted with PE, and then treated with escalating doses of carbachol (CCH; 10−8 to 10−5 M).
Freshly isolated rat aorta (RA) was cut into rings and suspended in the muscle bath. Tissues were then treated with the cytokine IL1β (50 ng/ml) in the absence or presence of NiPp, NiPp3, or scr3NiPp (100 μM) for 2 hrs, contracted with PE, and then treated with escalating doses of carbachol (CCH; 10^−8 to 10^−5 M). NiPp3 (SEQ ID NO:77) is a control polypeptide containing non-phosphorylated sequence of X2 of NiPp. scr3NiPp3 (SEQ ID NO:79) is a control polypeptide containing scrambled sequence of X2 of NiPp.

[2] = system: rat aorta; assay: Endothelial-dependent relaxation of rat aorta after BzATP (ATP / P2X7R) injury, muscle bath; type: cell-based; conditions: BzATP 1 mM, room temperature; for endothelial function (percent relaxation to carbachol of PE-precontracted tissue) after BzATP injury: peptide 100 and 500 μM, 1 hour
Procedure: Freshly isolated rat aorta was treated with 3′-O-(4-Benzoyl)benzoyl adenosine 5′-triphosphate (BzATP, 1 mM), an analogue of ATP, to induce injury in the absence or presence of NiPp (100 and 500 μM) for 1 hour at room temperature. To determine the effect of injury on endothelial function, phenylephrine (PE)-precontracted tissues were treated with carbachol (CCH; 5×10^−7 M) and the percent relaxation was determined as a change to the maximal PE-induced contraction. Data are reported as mean responses±standard deviation. n=5-6. *p<0.05, paired t-test.
Freshly isolated rat aorta was treated with 3′-O-(4-Benzoyl)benzoyl adenosine 5′-triphosphate (BzATP, 1 mM), an analogue of ATP, to induce injury in the absence or presence of NiPp, NiPp3, or scr3NiPp (A, 100 and B, 500 μM) for 1 hour at room temperature. To determine the effect of injury on endothelial function, phenylephrine (PE)-precontracted tissues were treated with escalating doses of carbachol (CCH; 10^−10 to 10^−5M) and the percent relaxation was determined as a change to the maximal PE-induced contraction. n=7. *p<0.05, two-way ANOVA with Tukey post-tests. There were significant differences between BzATP-treated vs ctrl or NiPp-treated RA.
Tissue rings were then transferred to NS and continued incubation in the absence or presence of NiPp (500 μM) for 2 h at room temperature. Control rings (Ctrl) were incubated in PL for 2.5 h. […] After treatments, RA were suspended in the muscle bath, contracted with PE and then treated with escalating doses of carbachol (CCH; 10^−8 to 10^−5M). The percent relaxation was determined as a change to the maximal PE-induced contraction. Percent relaxation to 5×10^−7 M CCH is shown. n=5-7 rats. *p<0.05 in one-way ANOVA with Tukey post-test. Data are expressed as mean±SD.
NiPp was synthesized at 3 separate times and tested in the muscle bath using rat aorta (RA). RA was either left untreated (Ctrl) or treated with BzATP (1 mM) in the absence of presence of NiPp (500 μM) in PL for 2 h at room temperature. After treatments, RA were suspended in the muscle bath, contracted with PE and then treated with escalating doses of carbachol 5×10^−7 M CCH. The percent relaxation was determined as a change to the maximal PE-induced contraction. […] Data are expressed as mean±SD.
Measurement of endothelial-dependent relaxation. […]
This produced the maximal force tension relationship as previously described. […] Contractile responses were defined by stress, calculated using force generated by tissues as follows: stress (×10^5 N/m^2)=force (g)×0.0987/area, where area=wet weight (mg)/at maximal length (mm)]/1.055.
Relaxation was calculated as percent change in stress compared to the maximal PE-induced contraction (set as 100%). […]

| Substance | endothelial function (percent relaxation to carbachol) after IL1β injury [1] | endothelial function (percent relaxation to carbachol) after IL1β injury ([1]; listed as scr3NiPp3) | endothelial function (percent relaxation to carbachol of PE-precontracted tissue) after BzATP injury [2] | endothelial function (percent relaxation to carbachol) after cytokine injury [1] | endothelial function (percent relaxation to 5×10^−7 M CCH) after P2X7R activation by BzATP ([2]; NiPp 500 μM in PL, 1 h) |
| --- | --- | --- | --- | --- | --- |
| YARAAARQARAAGSPPLA(pS)AIARR (YARAAARQARAAGSPPLA[pS]AIARR) [scr3NiPp] | did not restore | failed to restore | did not restore |  |  |
| YARAAARQARASPAARRA(pS)AILPG (YARAAARQARASPAARRA[pS]AILPG) [NiPp, Cell-permeant phosphopeptide mimetic of Niban: transduction domain … conjugated to the region surrounding serine 602 of Niban] | restores |  | restored | improved; also recorded: restores | prevented; also recorded: restores |
| YARAAARQARASPAARRASAILPG (not fully specified (residue 19)) [NiPp3] |  |  | did not restore | significant improvement |  |

From patent US12583895B2, “Polypeptides for restoring endothelial function and methods of use thereof” (Vanderbilt University, priority 2019, dated 2026)
